According to the NIST ThermoML archive (doi:10.1016/j.jct.2005.03.013):
± gives the expanded uncertainty stated by the source.

What was measured:
[1] = molar heat capacity at constant pressure; conditions: 101.33 kPa, Liquid, Large sample (1 g) DSC
[2] = for viscosity: 101.33 kPa, Liquid

| SMILES | molar heat capacity at constant pressure ([1]; 298 K) [J/K/mol] | molar heat capacity at constant pressure ([1]; 323 K) [J/K/mol] | viscosity ([2]; 283 K) [mPa·s] | viscosity ([2]; 293 K) [mPa·s] | viscosity ([2]; 298 K) [mPa·s] | viscosity ([2]; 303 K) [mPa·s] | viscosity ([2]; 313 K) [mPa·s] | viscosity ([2]; 323 K) [mPa·s] | viscosity ([2]; 333 K) [mPa·s] | viscosity ([2]; 343 K) [mPa·s] | Glass transition temperature [2] [°C] |
| --- | --- | --- | --- | --- | --- | --- | --- | --- | --- | --- | --- |
| CCOC(=O)c1ccc[n+](CC)c1.CCOS(=O)(=O)[O-] [3-(ethoxycarbonyl)-1-ethylpyridinium ethylsulfate] | 513 ± 52 | 530 ± 54 | 19610 ± 4800 | 5675 ± 1200 | 3173 ± 570 | 1986 ± 310 | 846 ± 110 | 405 ± 40 | 221 ± 17 | 130 ± 9 | -44 ± 3 |
| CCCCCCn1cc[n+](C)c1.[Br-] [3-hexyl-1-methyl-1H-imidazolium bromide] | 344 ± 35 | 357 ± 36 | – | – | – | – | – | – | – | – | -49 ± 4 |
